We go through 34 molecules from US20200390889A1, “REMOTELY TRIGGERED THERAPY” (Bambu Vault LLC, priority 2019, published 2020).

For series [1] the following is noted: likelihood of association with drug induced liver injury, based upon the known potential of the drug; cited from earlier work.
Series [2] can be described thus: Screening of acrylic polymers and additives for IR absorbing agent stability and retention. The class given is physicochemical. The conditions noted are these: additive within the particles. On the procedure: Various commercially available acrylic polymers were screened for preferred particle performance characteristic such as particle size distribution, IR absorbing agent stability and encapsulation efficiency. […] NeoCryl® B-818, an ethyl acrylate/ethyl methacrylate copolymer, contained a lower hydroxyl value, but was still swellable in low molecular weight alcohols. NeoCryl® B-805, a methyl methacrylate/butyl methacrylate copolymer, had suitably a low hydroxyl value and a high Tg (99° C.) for human body applications.
The loading of IR absorbing agents within the particles is as high as possible without degrading the cohesion of the polymer. The additives that stabilize the IR absorbing agent within the particles have been studied.

Series [3] can be described thus: Retention of tetrakis aminium dye during emulsification with different surfactants. The class given is physicochemical. Conditions: for retention of Epolight 1117 in the particles: during the emulsion and evaporation process. On the procedure:
IR absorbing agent weight ratio=4.4:1). The organic phase (polymer and IR absorbing agents dissolved in dichloromethane) was injected directly into the aqueous phase (PVA solution with SDS surfactant) at the tip of the Turrax's roto-stator (i.e. directly into the flow being sheared by the roto-stator). The shear mixing at 8000 RPM was continued for 30 minutes. The resulting mixture was decanted into an open-mouth container and stirred magnetically for 16 hours. A solid suspension of particles containing IR absorbing agent was obtained. The solid suspension was centrifuged at 5000 RPM for 30 minutes and the particles were collected. The collected particles were washed with distilled water by resuspending the particles into distilled water and centrifuging as before to collect the particles. This washing process was repeated three times to remove residual PVA. The resulting MMA/IA/BMA copolymer particles containing IR absorbing agent were air-dried. In the emulsion method of encapsulation, a surfactant is necessary to help keep the emulsion stable. While Aerosol® TR-70 (sodium bis(tridecyl) sulfosuccinate) could be used as an emulsifier to prepare polymer particles encapsulating Epolight™ 1117 tetrakis aminium dye, TR-70 only provided limited stabilization effects on the tetrakis aminium dye. […] Reducing the amount of SDS in the aqueous phase led to lower Epolight™ 1117 retention and larger particle size (Table 5).

The mark [4] stands for this setting: 0.6% surfactant in aqueous phase during emulsification.

Take `CCN1CCN(Cc2ccc(Nc3ncc(F)c(-c4cc(F)c5nc(C)n(C(C)C)c5c4)n3)nc2)CC1` [Abemaciclib]: the “Likelihood Score” value in series [1] is “E*”.
For `CCS(=O)(=O)N1CC(CC#N)(n2cc(-c3ncnc4[nH]ccc34)cn2)C1` [Baricitinib], in series [1], the “Likelihood Score” value was “E*”.
In the case of `Cn1cnc2c(F)c(Nc3ccc(Br)cc3F)c(C(=O)NOCCO)cc21` [Binimetinib], the “Likelihood Score” value in series [1] was “E*”.
For `COc1cc(Nc2c(C#N)cnc3cc(OCCCN4CCN(C)CC4)c(OC)cc23)c(Cl)cc1Cl` [Bosutinib], the “Likelihood Score” value in series [1] was “E*”.
Turning to `COc1cc(N2CCC(N3CCN(C)CC3)CC2)ccc1Nc1ncc(Cl)c(Nc2ccccc2P(C)(C)=O)n1` [Brigatinib], the “Likelihood Score” value in series [1] was “E*”.
With `COc1cc2nccc(Oc3ccc(NC(=O)C4(C(=O)Nc5ccc(F)cc5)CC4)cc3)c2cc1OC` [Cabozantinib], the “Likelihood Score” value in series [1] is on record as “E*”.
In the case of `COc1c(OCCCN2CCOCC2)ccc2c1N=C(NC(=O)c1cnc(N)nc1)N1CCN=C21` [Copanlisib], the “Likelihood Score” value in series [1] was “E*”.
For the molecule `Cc1cc(C(C)(C)C)c(O)c(C)c1Cn1c(=O)n(Cc2c(C)cc(C(C)(C)C)c(O)c2C)c(=O)n(Cc2c(C)cc(C(C)(C)C)c(O)c2C)c1=O` [Cyanox® 1790, 1,3,5-tris(4-tert-butyl-3-hydroxy-2,6-dimethylbenzyl)-1,3,5-triazine-2,4,6-(1H,3H,5H)-trione], the “impact on IR absorbing agent stability” value in series [2] was “positive impact”.
With `CC(C)(C)c1nc(-c2cccc(NS(=O)(=O)c3c(F)cccc3F)c2F)c(-c2ccnc(N)n2)s1` [Dabrafenib], the “Likelihood Score” value in series [1] was “E*”.
Turning to `COc1cc2ncnc(Nc3ccc(F)c(Cl)c3)c2cc1NC(=O)/C=C/CN1CCCCC1` [Dacomitinib], the “Likelihood Score” value in series [1] is “E*”.
Turning to `C[C@H](Nc1ncnc2[nH]cnc12)c1cc2cccc(Cl)c2c(=O)n1-c1ccccc1` [Duvelisib], the “Likelihood Score” value in series [1] is reported as “E*”.
`CC(C)(O)CNc1nc(Nc2ccnc(C(F)(F)F)c2)nc(-c2cccc(C(F)(F)F)n2)n1` [Enasidenib]: the “Likelihood Score” value in series [1] is listed as “E*”.
In the case of `COC(=O)N[C@@H](C)CNc1nccc(-c2cn(C(C)C)nc2-c2cc(Cl)cc(NS(C)(=O)=O)c2F)n1` [Encorafenib], in series [1], the “Likelihood Score” value is listed as “E*”.
In the case of `COc1cc(Nc2ncc(F)c(Nc3ccc4c(n3)N(COP(=O)(O)O)C(=O)C(C)(C)O4)n2)cc(OC)c1OC` [Fostamatinib], the “Likelihood Score” value in series [1] is “E*”.
In the case of `CCc1nc(C(N)=O)c(Nc2ccc(N3CCC(N4CCN(C)CC4)CC3)c(OC)c2)nc1NC1CCOCC1` [Gilteritinib], in series [1], the “Likelihood Score” value is listed as “E*”.
On to `CN1CC[C@@H](NC(=O)Nc2ccc(C#N)cc2)C[C@@H]1c1nc2ccccc2[nH]1` [Glasdegib], for which the “Likelihood Score” value in series [1] is given as “E*”.
As to `N#Cc1ccnc(N2C(=O)CC[C@H]2C(=O)N(c2cncc(F)c2)[C@H](C(=O)NC2CC(F)(F)C2)c2ccccc2Cl)c1` [Ivosidenib], the “Likelihood Score” value in series [1] is given as “E*”.
Regarding `CC(C)C[C@H](NC(=O)CNC(=O)c1cc(Cl)ccc1Cl)B(O)O` [Ixazomib], the “Likelihood Score” value in series [1] is “E*”.
Take `O=C(Nc1cnn2ccc(N3CCC[C@@H]3c3cc(F)ccc3F)nc12)N1CC[C@H](O)C1` [Larotrectinib]: the “Likelihood Score” value in series [1] was “E*”.
For `C[C@H]1Oc2cc(cnc2N)-c2c(nn(C)c2C#N)CN(C)C(=O)c2ccc(F)cc21` [Lorlatinib], the “Likelihood Score” value in series [1] is listed as “E*”.
Turning to `CO[C@@H]1[C@H](N(C)C(=O)c2ccccc2)C[C@H]2O[C@]1(C)n1c3ccccc3c3c4c(c5c6ccccc6n2c5c31)C(=O)NC4` [Midostaurin], the “Likelihood Score” value in series [1] is given as “E*”.
As to `CCOc1cc2ncc(C#N)c(Nc3ccc(OCc4ccccn4)c(Cl)c3)c2cc1NC(=O)/C=C/CN(C)C` [Neratinib], the “Likelihood Score” value in series [1] is recorded as “E*”.
With `COC(=O)c1ccc2c(c1)NC(=O)/C2=C(\Nc1ccc(N(C)C(=O)CN2CCN(C)CC2)cc1)c1ccccc1` [Nintedanib], the “Likelihood Score” value in series [1] is “E*”.
As to `NC(=O)c1cccc2cn(-c3ccc([C@@H]4CCCNC4)cc3)nc12` [Niraparib], in series [1], the “Likelihood Score” value was “E*”.
In the case of `CC(=O)c1c(C)c2cnc(Nc3ccc(N4CCNCC4)cn3)nc2n(C2CCCC2)c1=O` [Palbociclib], the “Likelihood Score” value in series [1] is “E*”.
Take `Cc1ccc(C(=O)Nc2ccc(CN3CCN(C)CC3)c(C(F)(F)F)c2)cc1C#Cc1cnc2cccnn12` [Ponatinib]: the “Likelihood Score” value in series [1] is given as “E*”.
As to `CNCc1ccc(-c2[nH]c3cc(F)cc4c3c2CCNC4=O)cc1` [Rucaparib], the “Likelihood Score” value in series [1] is recorded as “D*”.
As to `N#CC[C@H](C1CCCC1)n1cc(-c2ncnc3[nH]ccc23)cn1` [Ruxolitinib], the “Likelihood Score” value in series [1] is on record as “E*”.
Consider `CCCCCCCCCCCCOS(=O)(=O)[O-].[Na+]` [SDS, sodium dodecyl sulfate], for which the “% Epolight 1117 Retention” value in series [3] (0.2% surfactant in aqueous phase during emulsification) was found to be 74.97%; in series [3] (0.4% surfactant in aqueous phase during emulsification), 80.17%; in series [3] (setting [4]), 82.96%. The “retention of Epolight 1117 in the particles” value in series [3] is on record as 85-90%.
Turning to `Cc1c(C(=O)Nc2ccc(N3C[C@@H](C)O[C@@H](C)C3)nc2)cccc1-c1ccc(OC(F)(F)F)cc1` [Sonidegib], in series [1], the “Likelihood Score” value was “E*”.
Regarding `CCCCCCCCCCCCCOC(=O)CC(C(=O)OCCCCCCCCCCCCC)S(=O)(=O)O.[Na]` (centres unmarked) [TR-70, sodium bis(tridecyl) sulfosuccinate], the “% Epolight 1117 Retention” value in series [3] (setting [4]) was 51.70%. Besides, the “retention of Epolight 1117 in the particles” value in series [3] is on record as 50%.
As for `Cn1ncnc1[C@H]1c2n[nH]c(=O)c3cc(F)cc(c23)N[C@@H]1c1ccc(F)cc1` [Talazoparib], in series [1], the “Likelihood Score” value is recorded as “E*”.
As to `COc1cc2c(Nc3ccc(Br)cc3F)ncnc2cc1OCC1CCN(C)CC1` [Vandetanib], the “Likelihood Score” value in series [1] is “E*”.
In the case of `CCCS(=O)(=O)Nc1ccc(F)c(C(=O)c2c[nH]c3ncc(-c4ccc(Cl)cc4)cc23)c1F` [Vemurafenib], the “Likelihood Score” value in series [1] was “E*”.
